Source: patent US20080269251A1, “Substituted Pyrazinone Derivatives as Alpha2C-Adrenoreceptor Antagonists” (priority 2005, published 2008)

Assays:
[1] = biological target: T1, human adrenergic-α2A receptor (Homo sapiens, UniProt P08913); assay: Radioligand binding experiment for hα2A-adrenergic receptor ([3H]raulwolscine); details: [3H]raulwolscine 1 nM, 60 minutes at 25° C.; for IC50: read-out: h-α2A pIC50 (converted)
T1 construct: expressed in transfected cells; host or cells: CHO cells, stably transfected; membrane preparation
T1 sequence (P08913 1-465): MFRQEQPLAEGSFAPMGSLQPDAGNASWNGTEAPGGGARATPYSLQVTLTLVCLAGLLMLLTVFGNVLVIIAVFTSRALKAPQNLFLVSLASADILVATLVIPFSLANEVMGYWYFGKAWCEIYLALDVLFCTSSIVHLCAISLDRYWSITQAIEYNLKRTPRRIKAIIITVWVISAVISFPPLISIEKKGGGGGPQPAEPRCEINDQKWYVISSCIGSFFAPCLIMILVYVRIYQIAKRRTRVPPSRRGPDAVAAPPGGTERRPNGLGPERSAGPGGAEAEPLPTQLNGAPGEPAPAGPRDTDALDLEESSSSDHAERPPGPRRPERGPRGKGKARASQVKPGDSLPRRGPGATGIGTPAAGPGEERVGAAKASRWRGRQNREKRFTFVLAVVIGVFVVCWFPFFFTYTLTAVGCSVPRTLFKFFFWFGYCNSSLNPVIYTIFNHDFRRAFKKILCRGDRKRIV
How it was run: (§1)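 CHO membranes expressing human α2A or α2C receptors were incubated with 1 nM [^3H]raulwolscine for 60 min at 25° C in glycylglycine 25 mM, pH 8.0, then filtered. Nonspecific binding was defined with 1 μM oxymetazoline for α2A and 1 μM spiroxatrine for α2C. pIC50 came from sigmoidal competition curves.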

[2] = biological target: T2, human adrenergic-α2C receptor (Homo sapiens, UniProt P18825); assay: Radioligand binding experiment for hα2C-adrenoceptor ([3H]raulwolscine); details: [3H]raulwolscine 1 nM, 60 minutes at 25° C.; for IC50: read-out: h-α2C pIC50 (converted)
T2 construct: expressed in transfected cells; host or cells: CHO cells, stably transfected; membrane preparation
T2 sequence (P18825 1-462): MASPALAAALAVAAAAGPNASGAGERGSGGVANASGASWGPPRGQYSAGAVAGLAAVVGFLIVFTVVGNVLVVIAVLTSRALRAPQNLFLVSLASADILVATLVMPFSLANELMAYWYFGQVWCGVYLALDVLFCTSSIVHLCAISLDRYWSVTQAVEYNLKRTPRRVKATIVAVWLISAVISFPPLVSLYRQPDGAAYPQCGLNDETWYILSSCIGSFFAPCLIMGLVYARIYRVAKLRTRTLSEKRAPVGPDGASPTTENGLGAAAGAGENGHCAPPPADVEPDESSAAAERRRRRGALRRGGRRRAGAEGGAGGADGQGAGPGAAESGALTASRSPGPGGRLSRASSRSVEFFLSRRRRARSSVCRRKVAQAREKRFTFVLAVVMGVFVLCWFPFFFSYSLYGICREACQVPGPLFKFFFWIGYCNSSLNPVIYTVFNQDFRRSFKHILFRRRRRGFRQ
How it was run: as §1

5HT-transporter = biological target: T3, 5HT-transporter (Homo sapiens, UniProt P31645); assay: Binding experiment for the 5HT-transporter ([3H]paroxetine, human platelet membranes); details: [3H]paroxetine 0.5 nM, 60 min at 25° C.; for IC50: read-out: h-5HTT pIC50 (converted)
T3 construct: Human platelet membranes (Oceanix Biosciences Corporation, Hanover, Md., USA) were thawed; tissue Oceanix Biosciences Corporation, Hanover, Md., USA; host or cells: human platelet membranes
T3 sequence (P31645 whole entry): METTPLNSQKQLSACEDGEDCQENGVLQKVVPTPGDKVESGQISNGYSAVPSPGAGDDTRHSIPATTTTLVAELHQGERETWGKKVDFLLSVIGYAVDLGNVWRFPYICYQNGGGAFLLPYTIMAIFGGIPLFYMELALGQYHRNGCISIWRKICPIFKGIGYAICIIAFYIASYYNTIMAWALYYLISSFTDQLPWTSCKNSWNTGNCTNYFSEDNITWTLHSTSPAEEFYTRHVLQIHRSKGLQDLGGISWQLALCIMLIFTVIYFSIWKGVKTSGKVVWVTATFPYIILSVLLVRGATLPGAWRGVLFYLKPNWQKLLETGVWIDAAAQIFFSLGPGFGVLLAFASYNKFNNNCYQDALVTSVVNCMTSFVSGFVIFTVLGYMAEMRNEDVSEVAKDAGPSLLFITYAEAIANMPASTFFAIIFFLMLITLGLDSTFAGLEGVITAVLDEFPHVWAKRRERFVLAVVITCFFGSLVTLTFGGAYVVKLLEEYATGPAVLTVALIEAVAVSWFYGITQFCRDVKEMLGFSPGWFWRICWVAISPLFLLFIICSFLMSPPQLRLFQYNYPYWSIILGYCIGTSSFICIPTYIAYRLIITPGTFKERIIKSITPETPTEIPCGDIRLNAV
How it was run: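 Competition binding of [3H]paroxetine to human platelet membranes in Tris-HCl 50 mM with 120 mM NaCl and 5 mM KCl; bound radioligand separated by GF/B filtration and counted.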

Compound | h-α2A pIC50 [1] | h-α2C pIC50 [2] | h-5HTT pIC50 (5HT-transporter) | IC50 [1] [nM] | IC50 [2] [nM] | IC50 (5HT-transporter) [nM]
CN1CCN(Cc2ccc(-n3ccnc(NC4CCN(Cc5ccc6ccccc6c5)CC4)c3=O)cc2)CC1 [2-02] | 6.9 | 7.8 | 8.3 |  |  | 
CN1CCN(c2ccc(-n3ccnc(NC4CCN(Cc5ccc6ccccc6c5)CC4)c3=O)cc2)CC1 [2-03] |  |  |  | 100 | 25.1 | 12.6
O=C1CN(Cc2ccc(-n3ccnc(NC4CCN(Cc5ccc6ccccc6c5)CC4)c3=O)cc2)CCN1 [2-04] |  |  |  | 126 | 25.1 | 31.6
O=C(Cn1ccnc(NC2CCN(Cc3ccc4ccccc4c3)CC2)c1=O)N1CCN(c2ccccc2)CC1 [2-05] |  |  |  | 251 | 39.8 | 200
O=C(Cn1ccnc(NC2CCN(Cc3ccc4ccccc4c3)CC2)c1=O)N1CCN(Cc2ccccc2)CC1 [2-06] |  |  |  | 398 | 7.94 | 316
Cc1ccc(N2CCN(C(=O)Cn3ccnc(NC4CCN(Cc5ccc6ccccc6c5)CC4)c3=O)CC2)cc1C [2-07] |  |  |  | 398 | 79.4 | 63.1
O=c1c(NC2CCN(Cc3ccc4ccccc4c3)CC2)nccn1CCN1CCOCC1 [2-09] |  |  |  | 1000 | 158 | 501
O=c1c(NC2CCN(Cc3ccc4ccccc4c3)CC2)nccn1-c1ccc(CN2CCCCC2)cc1 [2-11] |  |  |  | 200 | 10 | 7.94
O=c1c(NC2CCN(Cc3ccc4ccccc4c3)CC2)nccn1-c1ccc(CN2CCC(F)CC2)cc1 [2-12] | 7.3 | 8.1 | 8.4 |  |  | 
O=c1c(NC2CCN(Cc3ccc4ccccc4c3)CC2)nccn1-c1ccc(CN2CCC(F)CC2)c(F)c1 [2-13] |  |  |  | 63.1 | 3.98 | 6.31
O=c1c(NC2CCN(Cc3ccc4ccccc4c3)CC2)nccn1-c1ccc(CN2CCC(O)CC2)cc1 [2-14] |  |  |  | 158 | 10 | 5.01
O=C(Cn1ccnc(NC2CCN(Cc3ccc4ccccc4c3)CC2)c1=O)N1CCC(Cc2ccccc2)CC1 [2-15] |  |  |  | 251 | 31.6 | 200
O=C(Cn1ccnc(NC2CCN(Cc3ccc4ccccc4c3)CC2)c1=O)N1CCC(C(F)(F)F)CC1 [2-16] |  |  |  | 501 | 126 | 1260
O=c1c(NC2CCN(Cc3ccc4ccccc4c3)CC2)nccn1-c1ccc(CN2CCC(Oc3cccnc3)CC2)cc1 [2-17] | 6.6 | 8.2 | 8.6 |  |  | 
O=c1c(NC2CCN(Cc3ccc4ccccc4c3)CC2)nccn1CCO [3-01] |  |  |  | 251 | 25.1 | 100
O=c1c(NC2CCN(Cc3ccc4ccccc4c3)CC2)nccn1CCCO [3-02] |  |  |  | 631 | 100 | 200
O=c1c(NC2CCN(Cc3ccc4ccccc4c3)CC2)nccn1CCCCO [3-03] |  |  |  | 398 | 63.1 | 158
COC(=O)CCn1ccnc(NC2CCN(Cc3ccc4ccccc4c3)CC2)c1=O [3-04] |  |  |  | 1000 | 79.4 | 398
CCOC(=O)CCCn1ccnc(NC2CCN(Cc3ccc4ccccc4c3)CC2)c1=O [3-06] |  |  |  | 200 | 63.1 | 79.4
CCOC(=O)CCCCn1ccnc(NC2CCN(Cc3ccc4ccccc4c3)CC2)c1=O [3-08] |  |  |  | 79.4 | 12.6 | 10
O=c1c(NC2CCN(Cc3ccc4ccccc4c3)CC2)nccn1CCOc1ccccc1 [3-09] |  |  |  | 316 | 100 | 12.6
O=c1c(NC2CCN(Cc3ccc4ccccc4c3)CC2)nccn1CCCOc1ccccc1 [3-10] |  |  |  | 126 | 50.1 | 15.8
O=c1c(NC2CCN(Cc3ccc4ccccc4c3)CC2)nccn1CCCOCc1ccccc1 [3-11] |  |  |  | 251 | 25.1 | 20
O=c1c(NC2CCN(Cc3ccc4ccccc4c3)CC2)nccn1CCOC1CCCCO1 (stereo not drawn) [3-12] |  |  |  | 631 | 79.4 | 79.4

Compound | h-α2A pIC50 [1] | h-α2C pIC50 [2] | h-5HTT pIC50 (5HT-transporter) | IC50 [1] [nM] | IC50 [2] [nM] | IC50 (5HT-transporter) [nM]
O=c1c(NC2CCN(Cc3ccc4ccccc4c3)CC2)nccn1-c1ccc(COCC2CCCO2)cc1 (stereo not drawn) [3-14] |  |  |  | 251 | 3.98 | 15.8
CCOC(CCn1ccnc(NC2CCN(Cc3ccc4ccccc4c3)CC2)c1=O)OC (stereo not drawn) [4-01] |  |  |  | 1260 | 100 | 200
CCOC(CCn1ccnc(NC2CCN(Cc3ccc4ccccc4c3)CC2)c1=O)OCC [4-02] |  |  |  | 794 | 79.4 | 251
COC(CCn1ccnc(NC2CCN(Cc3ccc4ccccc4c3)CC2)c1=O)OC [4-03] |  |  |  | 1000 | 100 | 316
O=c1c(NC2CCN(Cc3ccc4ccccc4c3)CC2)nccn1CCC1OCCO1 [4-04] |  |  |  | 501 | 79.4 | 158
O=c1c(NC2CCN(Cc3ccc4ccccc4c3)CC2)nccn1-c1ccc2c(c1)OCCO2 [4-05] |  |  |  | 20 | 31.6 | 10
O=c1[nH]ccnc1NC1CCN(Cc2ccc3ccccc3c2)CC1 [5-01] |  |  |  | 501 | 126 | 1260
CCCn1ccnc(NC2CCN(Cc3ccc4ccccc4c3)CC2)c1=O [5-02] |  |  |  | 158 | 63.1 | 100
CC(=O)Cn1ccnc(NC2CCN(Cc3ccc4ccccc4c3)CC2)c1=O [5-03] |  |  |  | 200 | 100 | 1000
CC(C)(C)C(=O)Cn1ccnc(NC2CCN(Cc3ccc4ccccc4c3)CC2)c1=O [5-04] |  |  |  | 200 | 39.8 | 398
N#CCCn1ccnc(NC2CCN(Cc3ccc4ccccc4c3)CC2)c1=O [5-05] |  |  |  | 398 | 200 | 316
O=c1c(NC2CCN(Cc3ccc4ccccc4c3)CC2)nccn1CCCC(c1ccc(F)cc1)c1ccc(F)cc1 [5-07] |  |  |  | 316 | 158 | 158
O=C(CCn1ccnc(NC2CCN(Cc3ccc4ccccc4c3)CC2)c1=O)c1ccccc1 [5-08] |  |  |  | 100 | 50.1 | 15.8
O=c1c(NC2CCN(Cc3ccc4ccccc4c3)CC2)nccn1Cc1cccc([N+](=O)[O-])c1 [5-09] |  |  |  | 200 | 79.4 | 50.1
O=Cc1ccc(-n2ccnc(NC3CCN(Cc4ccc5ccccc5c4)CC3)c2=O)cc1 [5-10] |  |  |  | 316 | 63.1 | 100
O=Cc1ccc(-n2ccnc(NC3CCN(Cc4ccc5ccccc5c4)CC3)c2=O)cc1F [5-11] |  |  |  | 398 | 63.1 | 39.8
O=c1c(NC2CCN(Cc3ccc4ccccc4c3)CC2)nccn1Cc1cccc(Br)c1 [5-13] |  |  |  | 200 | 126 | 126
O=c1c(NC2CCN(Cc3ccc4ccccc4c3)CC2)nccn1-c1nccs1 [6-01] |  |  |  | 251 | 63.1 | 20
O=c1c(NC2CCN(Cc3ccc4ccccc4c3)CC2)nccn1-c1ccc2[nH]ccc2c1 [6-02] |  |  |  | 126 | 31.6 | 25.1
O=c1c(NC2CCN(Cc3ccc4ccccc4c3)CC2)nccn1-c1ccc2cc[nH]c2c1 [6-03] |  |  |  | 50.1 | 39.8 | 50.1
O=c1c(NC2CCN(Cc3ccc4ccccc4c3)CC2)nccn1-c1csc2ccccc12 [6-04] |  |  |  | 251 | 50.1 | 31.6
O=c1c(NC2CCN(Cc3ccc4ccccc4c3)CC2)nccn1-c1cncnc1 [6-08] |  |  |  | 631 | 200 | 200
O=c1c(NC2CCN(Cc3ccc4ccccc4c3)CC2)nccn1-c1cnc2ccccc2c1 [6-09] |  |  |  | 200 | 126 | 50.1
